Reference: patent publication US11053204B2, “Pyrimidinyloxy benzene derivatives as herbicides” (FMC Corporation, priority 2015, dated 2021)

Key:
Assay in all cases: Test C postemergence, plant response rating
Assay type in all cases: in vivo
[1] = system: morningglory (Ipomoea coccinea)
Excerpt: (§1) Seeds of plant species selected from blackgrass (Alopecurus myosuroides), ryegrass, Italian (Italian ryegrass, Lolium multiflorum), wheat (winter wheat, Triticum aestivum), galium (catchweed bedstraw, Galium aparine), corn (Zea mays), crabgrass, large (large crabgrass, Digitaria sanguinalis), foxtail, giant (giant foxtail, Setaria faberii), johnsongrass (Sorghum halepense), lambsquarters (Chenopodium album), morningglory (Ipomoea coccinea), nutsedge, yellow (yellow nutsedge, Cyperus esculentus), pigweed (Amaranthus retroflexus), ragweed (common ragweed, Ambrosia elatior), soybean (Glycine max), barnyardgrass (Echinochloa crus-galli), oilseed rape (Brassica napus), pigweed, palmer (palmer pigweed, Amaranthus palmeri), waterhemp (common waterhemp, Amaranthus rudis), velvetleaf (Abutilon theophrasti), kochia (Kochia scoparia), surinam grass (Brachiaria decumbens), nightshade (eastern black nightshade, Solanum ptycanthum), wild poinsettia (Euphorbia heterophylla), windgrass (Apera spica-venti), and oat, wild (wild oat Avena fatua), were planted into a blend of loam soil and sand or a silt loam soil and treated preemergence with test chemicals formulated in a non-phytotoxic solvent mixture which included a surfactant.
(§2) At the same time, plants selected from these crop and weed species and also chickweed (common chickweed, Stellaria media), buckwheat, wild (wild buckwheat, Polygonum convolvulus), wild mustard (Sinapis arvensis), field poppy (Papaver rhoeas), field violet (Viola arvensis), geranium, cutleaf (cutleaf geranium, Geranium dissectum), Canada thistle (Cirsium arvense), and speedwell (bird's-eye speedwell, Veronica persica), were planted in pots containing Sunshine Redi-Earth® planting medium comprising spaghnum peat moss, vermiculite, starter nutrients and dolomitic limestone and treated with postemergence applications of test chemicals formulated in the same manner. Plants ranged in height from 2 to 18 cm (1- to 4-leaf stage) for postemergence treatments. Treated plants and controls were maintained in a greenhouse for 13 to 15 d, after which time all species were compared to controls and visually evaluated. Plant response ratings, summarized in Table C, are based on a scale of 0 to 100 where 0 is no effect and 100 is complete control. A dash (-) response means no test result.

[2] = system: wheat (winter wheat, Triticum aestivum)
Excerpt: as §1, §2

[3] = system: barnyardgrass (Echinochloa crus-galli)
Excerpt: as §1, §2

[4] = system: foxtail, giant (giant foxtail, Setaria faberii)
Excerpt: as §1, §2

[5] = system: oilseed rape (Brassica napus)
Excerpt: as §1, §2

[6] = system: velvetleaf (Abutilon theophrasti)
Excerpt: as §1, §2

[7] = system: blackgrass (Alopecurus myosuroides)
Excerpt: as §1, §2

[8] = 62 g ai/ha, scale 0 to 100 (0 no effect, 100 complete control)
[9] = 125 g ai/ha, scale 0 to 100 (0 no effect, 100 complete control)

O=C(OCC(F)(F)C(F)(F)F)c1c(Br)cccc1Oc1ncc(Cl)cn1 [Compound 23, 2,2,3,3,3-pentafluoropropyl 2-bromo-6-[(5-chloro-2-pyrimidinyl)oxy]benzoate]
pest or weed control at 16 g/ha ([1]; Ipomoea, post-emergence, 16 g ai/ha, scale 0 to 100): 10%
pest or weed control at 31 g/ha ([1]; Ipomoea, post-emergence, 31 g ai/ha, scale 0 to 100): 55%
pest or weed control at 62 g/ha ([1]; Ipomoea, post-emergence, 62 g ai/ha, scale 0 to 100 (0 no effect, 100 complete control)): 60%
pest or weed control at 125 g/ha ([1]; Ipomoea, post-emergence, 125 g ai/ha, scale 0 to 100 (0 no effect, 100 complete control)): 35%
plant injury at 16 g/ha ([2]; Triticum aestivum, post-emergence, 16 g ai/ha, scale 0 to 100): 0%
plant injury at 31 g/ha ([2]; Triticum aestivum, post-emergence, 31 g ai/ha, scale 0 to 100): 0%
plant injury at 62 g/ha ([2]; Triticum aestivum, post-emergence, 62 g ai/ha, scale 0 to 100 (0 no effect, 100 complete control), read-out: Wheat plant response rating): 0%
plant injury at 125 g/ha ([2]; Triticum aestivum, post-emergence, 125 g ai/ha, scale 0 to 100 (0 no effect, 100 complete control)): 0%
pest or weed control at 16 g/ha ([3]; Echinochloa crus-galli, post-emergence, 16 g ai/ha, scale 0 to 100): 10%
pest or weed control at 31 g/ha ([3]; Echinochloa crus-galli, post-emergence, 31 g ai/ha, scale 0 to 100): 10%
pest or weed control at 62 g/ha ([3]; Echinochloa crus-galli, post-emergence, 62 g ai/ha, scale 0 to 100 (0 no effect, 100 complete control)): 10%
pest or weed control at 125 g/ha ([3]; Echinochloa crus-galli, post-emergence, 125 g ai/ha, scale 0 to 100 (0 no effect, 100 complete control)): 20%
pest or weed control at 16 g/ha ([4]; Setaria faberi, post-emergence, 16 g ai/ha, scale 0 to 100): 10%
pest or weed control at 31 g/ha ([4]; Setaria faberi, post-emergence, 31 g ai/ha, scale 0 to 100): 35%
pest or weed control at 62 g/ha ([4]; Setaria faberi, post-emergence, 62 g ai/ha, scale 0 to 100 (0 no effect, 100 complete control)): 25%
pest or weed control at 125 g/ha ([4]; Setaria faberi, post-emergence, 125 g ai/ha, scale 0 to 100 (0 no effect, 100 complete control)): 30%
plant injury at 16 g/ha ([5]; Brassica napus, post-emergence, 16 g ai/ha, scale 0 to 100): 5%
plant injury at 31 g/ha ([5]; Brassica napus, post-emergence, 31 g ai/ha, scale 0 to 100): 5%
plant injury at 62 g/ha ([5]; Brassica napus, post-emergence, 62 g ai/ha, scale 0 to 100 (0 no effect, 100 complete control)): 50%
plant injury at 125 g/ha ([5]; Brassica napus, post-emergence, 125 g ai/ha, scale 0 to 100 (0 no effect, 100 complete control)): 35%
pest or weed control at 16 g/ha ([6]; Abutilon theophrasti, post-emergence, 16 g ai/ha, scale 0 to 100): 10%
pest or weed control at 31 g/ha ([6]; Abutilon theophrasti, post-emergence, 31 g ai/ha, scale 0 to 100): 35%
pest or weed control at 62 g/ha ([6]; Abutilon theophrasti, post-emergence, 62 g ai/ha, scale 0 to 100 (0 no effect, 100 complete control), read-out: Velvetleaf plant response rating): 35%
pest or weed control at 125 g/ha ([6]; Abutilon theophrasti, post-emergence, 125 g ai/ha, scale 0 to 100 (0 no effect, 100 complete control)): 40%
pest or weed control at 16 g/ha ([7]; Alopecurus myosuroides, post-emergence, 16 g ai/ha, scale 0 to 100): 0%
pest or weed control at 31 g/ha ([7]; Alopecurus myosuroides, post-emergence, 31 g ai/ha, scale 0 to 100): 5%
pest or weed control at 62 g/ha ([7]; Alopecurus myosuroides, post-emergence, 62 g ai/ha, scale 0 to 100 (0 no effect, 100 complete control)): 15%
pest or weed control at 125 g/ha ([7]; Alopecurus myosuroides, post-emergence, 125 g ai/ha, scale 0 to 100 (0 no effect, 100 complete control)): 20%

O=C(OCC(F)(F)F)c1c(Br)cccc1Oc1ncc(Cl)cn1 [Compound 35]
Plant response rating, Morningglory ([1]; 16 g ai/ha, scale 0 to 100): 40
Plant response rating, Morningglory ([1]; 31 g ai/ha, scale 0 to 100): 50
Morningglory plant response rating [1, 8]: 60
Morningglory plant response rating [1, 9]: 60
Plant response rating, Wheat ([2]; 16 g ai/ha, scale 0 to 100): 0
Plant response rating, Wheat ([2]; 31 g ai/ha, scale 0 to 100): 0
Wheat plant response rating [2, 8]: 0
Wheat plant response rating [2, 9]: 0
Plant response rating, Barnyardgrass ([3]; 16 g ai/ha, scale 0 to 100): 5
Plant response rating, Barnyardgrass ([3]; 31 g ai/ha, scale 0 to 100): 5
Barnyardgrass plant response rating [3, 8]: 10
Barnyardgrass plant response rating [3, 9]: 15
Plant response rating, Foxtail, Giant ([4]; 16 g ai/ha, scale 0 to 100): 5
Plant response rating, Foxtail, Giant ([4]; 31 g ai/ha, scale 0 to 100): 10
Foxtail, Giant plant response rating [4, 8]: 10
Foxtail, Giant plant response rating [4, 9]: 20
Plant response rating, Oilseed Rape ([5]; 16 g ai/ha, scale 0 to 100): 20
Plant response rating, Oilseed Rape ([5]; 31 g ai/ha, scale 0 to 100): 30
Oilseed Rape plant response rating [5, 8]: 50
Oilseed Rape plant response rating [5, 9]: 65
Plant response rating, Velvetleaf ([6]; 16 g ai/ha, scale 0 to 100): 40
Plant response rating, Velvetleaf ([6]; 31 g ai/ha, scale 0 to 100): 30
Velvetleaf plant response rating [6, 8]: 35
Velvetleaf plant response rating [6, 9]: 40
Plant response rating, Blackgrass ([7]; 16 g ai/ha, scale 0 to 100): 0
Plant response rating, Blackgrass ([7]; 31 g ai/ha, scale 0 to 100): 0
Blackgrass plant response rating [7, 8]: 10
Blackgrass plant response rating [7, 9]: 10
